The record followed here is patent publication US20110293658A1, “USE OF INKT OR TLR AGONISTS FOR PROTECTING AGAINST OR TREATING A DISEASE SUCH AS ACUTE INFECTION OR CANCER” (LUDWIG INSTITUTE FOR CANCER RESEARCH LTD., priority 2008, published 2011).

Values joined by “and” are separate entries in the source; they are usually repeats but may differ in a detail not shown here. Equal values may be shown once.

For test [1], the system named is EG7 cells (EL4 tumor cell line transfected with ovalbumin cDNA). Further details: species or system C57 BL/6 mice. The note with it: mouse, in vivo, iv.
The next test relates to IL-12p40. The experiment in a line: IL-12p40 production by MDSC (ELISA). Conditions: MDSC pulsed with 100 ng α-GalCer in the presence of iNKT cells. The format is cell-based, mouse. A general note: In an ELISA, binding on a coated surface is turned into a signal by an enzyme label.
In a further test the test system is ARG1. The experiment in a line: ARG1 activity of α-GalCer pulsed MDSC (urea release). The format is cell-based, mouse. The note with it: MDSC pulsed with 100 ng α-GalCer in the presence of iNKT cells. On the procedure: (§1) (A) Loss of ARG1 and NOS2 activity in α-GalCer pulsed MDSC incubated with BM derived iNKT cells. MDSC were treated with α-GalCer in the presence of iNKT cells and collected at different time points. ARG1 and NOS2 activities were measured using a colorimetric assay to evaluate urea and nitrate/nitrite release, respectively (De Santo et al. 2005. Proc Natl Acad Sci USA 102:4185-4190. Serafini et al. 2006. J Exp Med 203:2691-2702). An ELISA was used to evaluate IL-12p40 production. Values are shown as a percentage of time point 0. The maximum amount of urea released by untreated MDSC (1×10^6) was 91.7 μg. The maximum amount of […] measured in the supernatant of untreated MDSC was 120 μM. The maximum amount of IL-12p40 was 200 ng/ml.
(§2) Measuring activity of MDSC enzymes. ARG1 and NOS2 activities of α-GalCer pulsed BM-derived MDSC co-cultured with BM derived iNKT cells were assessed at different time points. NOS2 activity was measured from supernatants by Griess reaction, as the amount of NO3- and NO2-produced using a nitrate/nitrite assay kit (Cayman Chemicals) (Proc Natl Acad Sci USA 102:4185-4190). ARG1 activity was measured in cell lysates, as previously described (Proc Natl Acad Sci USA 102:4185-4190).

In test [2] the test system is BM derived MDSC. The experiment in a line: OT-I proliferation assay with BM derived MDSC. The class given is cell-based, mouse. The note with it: MDSC pulsed with α-GalCer in the presence of BM resident iNKT cells from WT mice.
Another test concerns human MDSC. The experiment in a line: iNKT cell dependent killing of α-GalCer pulsed human MDSC (Propidium Iodide). The note with it: α-GalCer 100 ng/ml, MDSC:iNKT cell ratio of 1:0.25, 24 h. The class given is cell-based. On the procedure: (B) Conditions to prevent lysis of α-GalCer pulsed human MDSC by iNKT cells. Human MDSC (0.5×10^6) were treated with α-GalCer (100 ng/ml) and co-cultured with increasing numbers of iNKT cells for 24 h. MDSC were stained with Propidium Iodide to calculate the percentage of iNKT cell dependent MDSC killing.

A further test concerns NOS2. The test is described as follows: NOS2 activity of α-GalCer pulsed MDSC (nitrate/nitrite release). The note with it: MDSC pulsed with 100 ng α-GalCer in the presence of iNKT cells. The class given is cell-based, mouse. On the procedure:
as §1, §2

In test [3] the test system is CD11b+ cells from IAV infected individuals. The class given is cell-based, human. Conditions: α-GalCer 100 ng/ml in presence of iNKT cells at MDSC:iNKT ratio 1:0.25, or ARG1 and NOS2 inhibitors; DC:CD11b+ 1:1.
In another test the test system is iNKT cells. The experiment in a line: IFN-γ release from iNKT cells incubated with α-GalCer pulsed CD11b+ cells. The class given is cell-based, human. The note with it: α-GalCer pulsed CD11b+ cells from IAV infected patients, 24 h. On the procedure: (C) iNKT cells are activated by α-GalCer pulsed CD11b^+ cells from IAV infected patients. IFN-γ release from iNKT cells incubated for 24 h with α-GalCer pulsed CD11b^+ cells, derived from the IAV infected patients and healthy controls described in FIG. 7. Data represent the average of 3 replicates ±S.D.

The test system of a further test is IL-23 and IL-12p70. The test is described as follows: IL-23 and IL-12p70 secretion by α-GalCer pulsed MDSC. The format is cell-based, mouse. The note with it: MDSC pulsed with α-GalCer in the presence of iNKT cells; data not shown.
The test system of test [4] is BM derived MDSC. The experiment in a line: iNKT cell dependent lysis of α-GalCer pulsed MDSC. The class given is cell-based, mouse. Conditions: MDSC pulsed with 100 ng of α-GalCer. On the procedure: CFSE labelled BM derived MDSC were either pulsed or not pulsed with α-GalCer and incubated with CD11c and Gr-1 depleted BM cultures, which contain iNKT cells.
In test [5] the test system is BM derived MDSC. The test is described as follows: Phenotypic analysis of treated MDSC (FACS). The format is cell-based, mouse.
The test system of another test is CD11bCD15 positive cells. The test is described as follows: Melan-A priming experiments with CD11bCD15 positive cells from melanoma patients. The format is cell-based, human. The note with it: CD11bCD15 positive cells pulsed with alphaGalCer 100 ng or Threitolceramide 200 ng. On the procedure: CD11bCD15 positive cells were pulsed with either alphaGalCer (100 ng) or Threitolceramide (200 ng) for 2 hours and then incubated with autologous iNKT cells overnight before adding autologous DC pulsed with Melan-A26-35 peptide and autologous CD11bCD15 cell depleted total leukocytes.
Experiments in FIG. 29 were carried out using the same conditions as shown in the right column of FIG. 28 (i.e. in the presence of iNKT cells and alphaGalCer pulsed CD11bCD15 positive cells) in the presence of either blocking anti CD1d (middle column) or blocking anti CD40 (right column) antibodies.
In order to assess whether secretion of IL-10 is contributing to the suppressive activity of CD11bCD15 positive cells, expansion of Melan-A26-35 specific T cell responses as assessed in the presence or absence of blocking anti 11-10 receptor antibodies. In the left hand panel of FIG. 31, expansion of Melan-A26-35 specific T cells was assessed using total leukocytes from which CD11b-CD15+ cells were removed (2.33%). Addition of CD11bCD15 positive cells reduced the frequency of Melan-A26-35 specific T cells (0.83%) (central panel).
Purification of CD11b/CD15+ cells. Since CD15 CD11b positive cells have granulocyte density, it is important to purify them without using density gradients, such as Ficol. Red blood cells are lysed from whole blood, using red lysis cell buffer and anti CD11b/CD15 specific antibodies are added to the leukocytes for FACS guided cell sorting.
Melan-A priming experiments. DCs were generated by culturing monocytes for 4 days in RPMI/10% FCS supplemented with 50 ng/ml GM-CSF (Pepro-tech) and 1,000 U/ml IL-4 (Salio, M., et al. 2007. Proc. Natl. Acad. Sci. U.S.A. 104:20490-20495). […] After 2 weeks, cells were stained with HLA-A2 tetramers loaded with melan-A26-35 peptide and anti CD8.
Harnessing iNKT cells. The protocol to purify Cdl lbCd15 cells and differentiate DC is similar to the protocol described earlier. Cdl lbCd15 cells were pulsed with either alphaGalCer (100 ng) or with threitolceramide (200 ng) and then incubated with iNKT cells for 12 hours. Cells were then washed pulsed with the melan-A26-35 peptide and incubated with total leukocytes. After 2 weeks in culture, cells were stained with HLA-A2 melan-A tetramers and anti-CD8 antibodies.

For `CCCCCCCCCCCCCCCCCCCCCCCCCC(=O)N[C@@H](CO[C@H]1O[C@H](CO)[C@H](O)[C@H](O)[C@H]1O)[C@H](O)[C@H](O)CCCCCCCCCCCCCC` [α-GalCer, α-Galactosylceramide], in test [1], the “frequency of MDSCs (CD11b+Gr1+ positive cells)” value is reported as “lower frequency”, the “frequency of Ova specific T cell responses (H-2Kb tetramer staining)” value is given as “higher frequency” and the “tumor size / tumor regression” value is “Tumour regression”. Also, in the test with IL-12p40, the “secretion of IL-12 p40” value was “enhanced secretion”. Besides, in the test with ARG1, the ARG1 activity result is listed as “reduction”. The “MDSC suppression of CFSE labelled OT-I proliferation” value in the test with BM derived MDSC [2] is given as “completely relieved”. Besides, the “iNKT cell dependent MDSC lysis” value in the test with human MDSC is recorded as “did not cause iNKT cell dependent MDSC lysis”. The NOS2 activity result in the test with NOS2 is “reduction”. Also, the “suppressive activity of CD11b+ cells collected from IAV infected individuals (MLR proliferation)” value in test [3] is given as “could be reduced”. The “activation of iNKT cells (IFN-γ release)” value in the test with iNKT cells is on record as “activated”. For the same molecule, in the test on IL-23 and IL-12p70, the “secretion of IL-23 and IL-12p70” value is listed as “No secretion”. For the same molecule, in the test with BM derived MDSC [4], the “lysis of pulsed MDSC by iNKT cells” value is recorded as “not lysed”. Further, the “differentiation of CD11c- MDSC (CD11c expression)” value with BM derived MDSC [5] (CFSE labelled α-GalCer pulsed MDSC incubated with iNKT cells, 48 h) is listed as “differentiation into CD11c^+ cells”. In addition, the “CD86 and MHC class II expression” value in the test on BM derived MDSC [5] (α-GalCer pulsed MDSC incubated with iNKT cells, data not shown) is “up-regulation”. In the test on CD11bCD15 positive cells (in the absence of added iNKT cells, unpulsed 0.34%), the “frequency of Melan-A26-35 specific T cells” value was found to be 0.32%. The “frequency of Melan-A26-35 specific T cells” value with CD11bCD15 positive cells (with addition of autologous iNKT cells) was 3.05% and 6.42%.
